Source: PubChem BioAssay AID330 (DTP/NCI, 2004)
“And” between values parts separate entries of the source, which are not always exact repeats. Equal entries are not always repeated. Toxic doses and inconclusive results are not listed. The calls were made as follows: active = survival T/C of 150% or more; inactive = T/C below 125% in these data.

Test system: P388 leukemia ip, CD2F1 mice, survival T/C
Test: NCI In Vivo Anticancer Drug Screen. Data for tumor model P388 Leukemia (intraperitoneal) in CD2F1 (CDF1) mice
Conditions: endpoint: median survival time, higher = longer survival
Outline: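 Mice carrying the transplanted tumor received test compound or vehicle. Survival was recorded in each group, and the value is the treated-group measurement divided by that of the vehicle-treated control group.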

[1] = dose: 60.0 mg/kg/injection, schedule: Q01DX005 (ip), vehicle: saline with Tween-80
[2] = dose: 120.0 mg/kg/injection, schedule: Q01DX005 (ip), vehicle: saline with Tween-80
[3] = dose: 240.0 mg/kg/injection, schedule: Q01DX005 (ip), vehicle: saline with Tween-80
[4] = dose: 6.25 mg/kg/injection, schedule: Q01DX009 (ip), vehicle: saline
[5] = dose: 50.0 mg/kg/injection, schedule: Q01DX005 (ip), vehicle: saline with Tween-80
[6] = dose: 100.0 mg/kg/injection, schedule: Q01DX005 (ip), vehicle: saline with Tween-80
[7] = dose: 12.5 mg/kg/injection, schedule: Q04DX003 (ip), vehicle: saline
[8] = dose: 25.0 mg/kg/injection, schedule: Q04DX003 (ip), vehicle: saline
[9] = dose: 50.0 mg/kg/injection, schedule: Q04DX003 (ip), vehicle: saline
[10] = dose: 50.0 mg/kg/injection, schedule: Q01DX009 (ip), vehicle: Klucel (hydroxypropylcellulose) (HPC)
[11] = dose: 100.0 mg/kg/injection, schedule: Q01DX009 (ip), vehicle: Klucel (hydroxypropylcellulose) (HPC)
[12] = dose: 200.0 mg/kg/injection, schedule: Q01DX009 (ip), vehicle: Klucel (hydroxypropylcellulose) (HPC)
[13] = dose: 50.0 mg/kg/injection, schedule: Q01DX009 (ip), vehicle: saline with Tween-80
[14] = dose: 100.0 mg/kg/injection, schedule: Q01DX009 (ip), vehicle: saline with Tween-80
[15] = dose: 200.0 mg/kg/injection, schedule: Q01DX009 (ip), vehicle: saline with Tween-80
[16] = dose: 50.0 mg/kg/injection, schedule: Q01DX009 (ip), vehicle: saline
[17] = dose: 100.0 mg/kg/injection, schedule: Q01DX009 (ip), vehicle: saline
[18] = dose: 200.0 mg/kg/injection, schedule: Q01DX009 (ip), vehicle: saline
[19] = dose: 100.0 mg/kg/injection, schedule: Q04DX002 (ip), vehicle: saline with Tween-80
[20] = dose: 200.0 mg/kg/injection, schedule: Q04DX002 (ip), vehicle: saline with Tween-80
[21] = dose: 400.0 mg/kg/injection, schedule: Q04DX002 (ip), vehicle: saline with Tween-80

Measured: T/C

CC(C)(C)CC(C)(C)C/C=C/C[N+](C)(C)C/C=C/CC(C)(C)CC(C)(C)C
inactive: dose: 12.5 mg/kg/injection, schedule: Q04DX002 (ip), vehicle: saline 102 % of control | dose: 25.0 mg/kg/injection, schedule: Q04DX002 (ip), vehicle: saline 95 % of control

Cc1ccc(S(=O)(=O)CCC(=O)c2ccc([N+](=O)[O-])cc2)cc1
inactive: dose: 50.0 mg/kg/injection, schedule: Q01DX005 (ip), vehicle: Klucel (hydroxypropylcellulose) (HPC) 96 % of control | dose: 100.0 mg/kg/injection, schedule: Q01DX005 (ip), vehicle: Klucel (hydroxypropylcellulose) (HPC) 96 % of control | dose: 200.0 mg/kg/injection, schedule: Q01DX005 (ip), vehicle: Klucel (hydroxypropylcellulose) (HPC) 96 % of control

COc1ccc2nc(Cl)c(Br)c(C)c2c1
inactive: [1] 95 % of control | [2] 92 % of control | [3] 90 % of control

C[n+]1ccc(-c2cc[n+](C)cc2)cc1
inactive: dose: 0.39 mg/kg/injection, schedule: Q01DX009 (ip), vehicle: saline 98 % of control | dose: 0.78 mg/kg/injection, schedule: Q01DX009 (ip), vehicle: saline 109 % of control | dose: 1.56 mg/kg/injection, schedule: Q01DX009 (ip), vehicle: saline 103 % of control and 109 % of control | dose: 3.12 mg/kg/injection, schedule: Q01DX009 (ip), vehicle: saline 100 % of control and 89 % of control | [4] 87 % of control

O=[N+]([O-])C1=CC(=N/Br)/C=CC/1=N/Br
inactive: [5] 94 % of control | [6] 100 % of control | dose: 200.0 mg/kg/injection, schedule: Q01DX005 (ip), vehicle: saline with Tween-80 118 % of control

O=C(O)c1cc(=O)c2c(OCC(O)COc3cccc4oc(C(=O)O)cc(=O)c34)cccc2o1.[Cu+2]
inactive: dose: 12.5 mg/kg/injection, schedule: Q04DX002 (ip), vehicle: Klucel (hydroxypropylcellulose) (HPC) 99 % of control | dose: 25.0 mg/kg/injection, schedule: Q04DX002 (ip), vehicle: Klucel (hydroxypropylcellulose) (HPC) 96 % of control | dose: 50.0 mg/kg/injection, schedule: Q04DX002 (ip), vehicle: Klucel (hydroxypropylcellulose) (HPC) 95 % of control

NNC(=O)CC(NN)c1ccccc1O (stereo unspecified)
inactive: [1] 104 % of control | [2] 105 % of control | [3] 105 % of control

COc1ccc(/C=C2\C=CC(=O)O2)cc1
inactive: dose: 100.0 mg/kg/injection, schedule: Q01DX002 (ip), vehicle: Klucel (hydroxypropylcellulose) (HPC) 104 % of control | dose: 200.0 mg/kg/injection, schedule: Q01DX002 (ip), vehicle: Klucel (hydroxypropylcellulose) (HPC) 103 % of control | dose: 400.0 mg/kg/injection, schedule: Q01DX002 (ip), vehicle: Klucel (hydroxypropylcellulose) (HPC) 105 % of control

CCN(CC)CCOC(C)(C#CC(C)(O)CC)CC (stereo unspecified)
inactive: [5] 100 % of control | [6] 106 % of control

COc1cc2c(C)c[n+]3cc4cc5c(OC)c(OC)ccc5cc4cc3c2cc1OC (tested in a mixture with another compound)
inactive: dose: 3.13 mg/kg/injection, schedule: Q04DX003 (ip), vehicle: distilled water + Tween-80 117 % of control | dose: 6.25 mg/kg/injection, schedule: Q04DX003 (ip), vehicle: distilled water + Tween-80 117 % of control | dose: 12.5 mg/kg/injection, schedule: Q04DX003 (ip), vehicle: distilled water + Tween-80 111 % of control | dose: 25.0 mg/kg/injection, schedule: Q04DX003 (ip), vehicle: distilled water + Tween-80 99 % of control

CCOC(=O)/C(C#N)=C(\CCC(C(=O)O)N1C(=O)c2ccccc2C1=O)OC (stereo unspecified)
inactive: dose: 100.0 mg/kg/injection, schedule: Q04DX002 (ip), vehicle: Klucel (hydroxypropylcellulose) (HPC) 102 % of control | dose: 200.0 mg/kg/injection, schedule: Q04DX002 (ip), vehicle: Klucel (hydroxypropylcellulose) (HPC) 102 % of control | dose: 400.0 mg/kg/injection, schedule: Q04DX002 (ip), vehicle: Klucel (hydroxypropylcellulose) (HPC) 110 % of control

CSc1nc(=S)c2[nH]c(C)nc2[nH]1
inactive: dose: 6.25 mg/kg/injection, schedule: Q04DX003 (ip), vehicle: saline 96 % of control | [7] 96 % of control | [8] 100 % of control | [9] 100 % of control

CC(=O)C1CO1 (stereo unspecified)
inactive: dose: 12.5 mg/kg/injection, schedule: Q01DX005 (ip), vehicle: saline 105 % of control | dose: 25.0 mg/kg/injection, schedule: Q01DX005 (ip), vehicle: saline 107 % of control | dose: 50.0 mg/kg/injection, schedule: Q01DX005 (ip), vehicle: saline 110 % of control and 116 % of control

NCP(=O)(CN)CN
inactive: [10] 99 % of control | [11] 100 % of control | [12] 100 % of control

CC(=O)OC1CC(=O)OC(C)(C)C2CC(=O)C3(C)C(CCC4(C)C(c5ccoc5)OC(=O)C5OC543)C12C (stereo unspecified)
inactive: [13] 99 % of control | [14] 97 % of control | [15] 97 % of control

O=C1NC(=O)C2=C1CCCC2O (stereo unspecified)
inactive: [4] 102 % of control | dose: 12.5 mg/kg/injection, schedule: Q01DX009 (ip), vehicle: saline 101 % of control | dose: 25.0 mg/kg/injection, schedule: Q01DX009 (ip), vehicle: saline 110 % of control | [16] 102 % of control | [17] 107 % of control | [18] 118 % of control

COC(=O)C12CCC(CC1C13CCCC(C)(C)C1C(=O)OC3)C(C)C2O (stereo unspecified)
inactive: [19] 96 % of control | [20] 94 % of control | [21] 94 % of control

CN(C)S(=O)(=O)Nc1cccc(Br)c1
inactive: [13] 103 % of control | [14] 102 % of control | [15] 106 % of control

Nc1ccc(C(=O)Nc2ccc(C(=O)Nc3ccc(/C=C/c4ccc(NC(=O)c5ccc(N)cc5)cc4S(=O)(=O)O)c(S(=O)(=O)O)c3)cc2)cc1
inactive: [16] 99 % of control | [17] 113 % of control | [18] 100 % of control

O=C(O)CCC(C(=O)O)N(Cc1ccccc1)Cc1ccccc1 (stereo unspecified)
inactive: dose: 100.0 mg/kg/injection, schedule: Q01DX001 (ip), vehicle: Klucel (hydroxypropylcellulose) (HPC) 105 % of control | dose: 200.0 mg/kg/injection, schedule: Q01DX001 (ip), vehicle: Klucel (hydroxypropylcellulose) (HPC) 100 % of control | dose: 400.0 mg/kg/injection, schedule: Q01DX001 (ip), vehicle: Klucel (hydroxypropylcellulose) (HPC) 105 % of control

NC(=S)n1nc(-c2ccccc2)c(N=Nc2cc(Cl)ccc2Cl)c1-c1ccccc1
inactive: [19] 89 % of control | [20] 90 % of control | [21] 110 % of control

O=C(N/N=C\c1cc([N+](=O)[O-])ccc1O)C(=O)N/N=C\c1cc([N+](=O)[O-])ccc1O
inactive: [10] 106 % of control | [11] 95 % of control | [12] 99 % of control

Nc1ccc([N+](=O)[O-])cc1
inactive: dose: 12.5 mg/kg/injection, schedule: Q01DX009 (ip), vehicle: distilled water + Tween-80 102 % of control | dose: 25.0 mg/kg/injection, schedule: Q01DX009 (ip), vehicle: distilled water + Tween-80 100 % of control | dose: 50.0 mg/kg/injection, schedule: Q01DX009 (ip), vehicle: distilled water + Tween-80 103 % of control | dose: 100.0 mg/kg/injection, schedule: Q01DX009 (ip), vehicle: distilled water + Tween-80 103 % of control | dose: 200.0 mg/kg/injection, schedule: Q01DX009 (ip), vehicle: distilled water + Tween-80 102 % of control

CSc1nc2cc(Cl)ccc2c2c1C=NCCN2
inactive: [7] 97 % of control | [8] 96 % of control | [9] 103 % of control | dose: 50.0 mg/kg/injection, schedule: Q04DX003 (ip), vehicle: suspension in saline 103 % of control

CSC(/C=C/c1ccccc1)=Nc1ccccc1
inactive: dose: 100.0 mg/kg/injection, schedule: Q01DX001 (ip), vehicle: saline with Tween-80 99 % of control | dose: 200.0 mg/kg/injection, schedule: Q01DX001 (ip), vehicle: saline with Tween-80 99 % of control | dose: 400.0 mg/kg/injection, schedule: Q01DX001 (ip), vehicle: saline with Tween-80 101 % of control

COc1nc(NCC(C)O)nc(NCC(C)O)n1 (stereo unspecified)
inactive: [16] 100 % of control | [17] 89 % of control | [18] 99 % of control
